In the first assay the target is T1, ACAT (AcylCoA-Cholesterolacyltransferase) (Oryctolagus cuniculus, UniProt G1SFD9).
T1 construct: from tissue; host or cells: rabbit small intestine epithelium, microsome fraction
T1 sequence (G1SFD9 1-524): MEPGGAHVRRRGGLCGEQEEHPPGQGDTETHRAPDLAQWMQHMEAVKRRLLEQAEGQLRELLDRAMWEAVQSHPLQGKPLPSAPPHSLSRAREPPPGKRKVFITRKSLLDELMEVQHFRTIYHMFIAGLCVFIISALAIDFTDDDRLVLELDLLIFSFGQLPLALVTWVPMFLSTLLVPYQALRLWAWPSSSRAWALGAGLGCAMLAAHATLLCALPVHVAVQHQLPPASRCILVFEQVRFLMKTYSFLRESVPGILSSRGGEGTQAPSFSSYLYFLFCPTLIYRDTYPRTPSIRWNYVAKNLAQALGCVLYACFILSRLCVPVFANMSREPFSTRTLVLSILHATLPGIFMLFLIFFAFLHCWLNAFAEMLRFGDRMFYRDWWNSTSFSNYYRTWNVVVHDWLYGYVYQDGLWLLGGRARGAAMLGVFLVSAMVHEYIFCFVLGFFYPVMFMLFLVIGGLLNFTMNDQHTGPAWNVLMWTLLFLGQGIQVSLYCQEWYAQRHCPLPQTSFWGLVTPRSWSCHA
The assay is described as follows: ACAT inhibitory activity in test tube (method of Heider et al., [1-14C]oleylCoA, small intestine epithelium microsome fraction). The format is biochemical, rabbit. Conditions: Concentration 20 μg/ml; rabbit small intestine microsome ACAT; read-out: Inhibitory Ratio (%). The procedure: That is, a rabbit is fed a 1% cholesterol diet for 3 weeks followed by dissection and extraction of the small intestine. After peeling off the small intestine epithelium and crushing with a homogenizer, incompletely crushed solids are removed by centrifugal separation. […] After allowing the reaction to proceed for the prescribed amount of time, 7 ml of a mixture of dichloromethane: methanol (2:1) is added to the reaction mixture and thoroughly mixed. The reaction, is stopped and the dichloromethane layer is removed, after which the cholesterol oleate portion is separated from that fraction by silica gel TLC (developing solution: petroleum ether:diethyl ether=95:5). The separated portion is scraped off and the radioactivity is measured using a liquid scintillation counter to calculate ACAT activity.
Regarding `CCCCC/C=C\C/C=C\CCCCCCCC(=O)OCC(O)CO` (stereo not shown), the inhibition at 20 µg/mL was determined as 28%.
The same measure, in the same setting: with `CCCCCC/C=C\CCCCCCCC(=O)OCC(O)CO` (stereo not shown) [1-palmitooleylglycerol] the figure was 24%.
On the same count and under the same terms, for `CCCCCCCCCCCCCCCC(=O)OCC(O)CO` (stereo not shown) [1-palmitoylglycerol] the value was 26%.

Staying with this assay, now noted: Concentration 50 μg/ml; rabbit small intestine microsome ACAT; read-out: Inhibitory Ratio (%).
As to `CCCCC/C=C\C/C=C\CCCCCCCC(=O)OCC(O)CO` (stereo not shown), the inhibition at 50 µg/mL is 54%.
The same measure, in the same setting: for `CCCCCC/C=C\CCCCCCCC(=O)OCC(O)CO` (stereo not shown) [1-palmitooleylglycerol] the value was 53%.
Same read-out and setting: with `CCCCCCCCCCCCCCCC(=O)OCC(O)CO` (stereo not shown) [1-palmitoylglycerol] the figure was 56%.

The same assay, now with this note: Concentration 100 μg/ml; rabbit small intestine microsome ACAT; read-out: Inhibitory Ratio (%).
In the case of `CCCCC/C=C\C/C=C\CCCCCCCC(=O)OCC(O)CO` (stereo not shown), the inhibition at 100 µg/mL is 74%.
The same measure, in the same setting: for `CCCCCC/C=C\CCCCCCCC(=O)OCC(O)CO` (stereo not shown) [1-palmitooleylglycerol] the value was 72%; for `CCCCCCCCCCCCCCCC(=O)OCC(O)CO` (stereo not shown) [1-palmitoylglycerol], 75%.

The assay is the same for the next values; noted with them: Concentration 150 μg/ml; rabbit small intestine microsome ACAT; read-out: Inhibitory Ratio (%).
`CCCCC/C=C\C/C=C\CCCCCCCC(=O)OCC(O)CO` (stereo not shown): the inhibition at 150 µg/mL was 86%.
Still for that read-out and setting: for `CCCCCC/C=C\CCCCCCCC(=O)OCC(O)CO` (stereo not shown) [1-palmitooleylglycerol] the value was 84%; for `CCCCCCCCCCCCCCCC(=O)OCC(O)CO` (stereo not shown) [1-palmitoylglycerol], 86%.

Still in this assay, the particulars now being: Concentration 200 μg/ml; rabbit small intestine microsome ACAT; read-out: Inhibitory Ratio (%).
For the molecule `CCCCC/C=C\C/C=C\CCCCCCCC(=O)OCC(O)CO` (stereo not shown), the inhibition at 200 µg/mL is 93%.
On the same count and under the same terms, with `CCCCCC/C=C\CCCCCCCC(=O)OCC(O)CO` (stereo not shown) [1-palmitooleylglycerol] the figure was 91%; with `CCCCCCCCCCCCCCCC(=O)OCC(O)CO` (stereo not shown) [1-palmitoylglycerol], 94%.

Still in this assay, the particulars now being: read-out: Inhibitory Ratio (%).
For `CCCCCCCC/C=C\CCCCCCCC(=O)OCC(O)CO` (stereo not shown), the inhibition at 20 µg/mL was 30%, the inhibition at 50 µg/mL amounted to 59%, the inhibition at 100 µg/mL was found to be 81% and the inhibition at 150 µg/mL amounted to 92%. Besides, the inhibition at 200 µg/mL is 100%.
Taken in the same sequence, the figures for `CCCCCCCC/C=C\CCCCCCCC(=O)OC(CO)CO` were 32%, 62%, 82%, 94% and 100%.
Taken in the same sequence, the figures for `CC/C=C\C/C=C\C/C=C\CCCCCCCC(=O)OCC(O)CO` (stereo not shown) [1-linolenoylglycerol] were 25%, 50%, 76%, 86% and 92%.
Take `CCCCCCCCCCCCCCCCCC(=O)OCC(O)CO` (stereo not shown) [1-stearoylglycerol]: the inhibition at 20 µg/mL stood at 15%, the inhibition at 50 µg/mL amounted to 29%, the inhibition at 100 µg/mL was determined as 38% and the inhibition at 150 µg/mL was determined as 45%. Besides, the inhibition at 200 µg/mL is 49%.

In a further assay the test system is ACAT activity of small intestine epithelial cells. The assay is described as follows: Animal test: ACAT activity of small intestine epithelial cells after administration in feed. The format is in vivo. As to conditions: male hamsters, 1 mg/animal/day mixed in feed, after 1 week. As for the experimental part: A test substance according to the present invention was administered to hamsters (males, body weight: 100 g) at a dose of 1 mg/animal/day by mixing in the same to their feed. The ACAT activity of small intestine epithelial cells was then measured after one week and after two weeks.
On to `CCCCC/C=C\C/C=C\CCCCCCCC(=O)OCC(O)CO` (stereo not shown), for which the “ACAT Inhibitory Ratio (%) After 1 week” value is reported as 59%.
The same measure, in the same setting: with `CCCCCCCC/C=C\CCCCCCCC(=O)OCC(O)CO` (stereo not shown) the figure was 60%; with `CCCCCCCC/C=C\CCCCCCCC(=O)OC(CO)CO`, 64%; with `CC/C=C\C/C=C\C/C=C\CCCCCCCC(=O)OCC(O)CO` (stereo not shown) [1-linolenoylglycerol], 57%.
Still for that read-out and setting: for `CCCCCC/C=C\CCCCCCCC(=O)OCC(O)CO` (stereo not shown) [1-palmitooleylglycerol] the value was 57%.
In the case of `CCCCCCCCCCCCCCCC(=O)OCC(O)CO` (stereo not shown) [1-palmitoylglycerol], the “ACAT Inhibitory Ratio (%) After 1 week” value is 56%.
For `CCCCCCCCCCCCCCCCCC(=O)OCC(O)CO` (stereo not shown) [1-stearoylglycerol], the “ACAT Inhibitory Ratio (%) After 1 week” value is 31%.

The same assay, now with this note: male hamsters, 1 mg/animal/day mixed in feed, after 2 weeks.
For the molecule `CCCCC/C=C\C/C=C\CCCCCCCC(=O)OCC(O)CO` (stereo not shown), the “ACAT Inhibitory Ratio (%) After 2 weeks” value is 53%.
`CCCCCCCC/C=C\CCCCCCCC(=O)OCC(O)CO` (stereo not shown): the “ACAT Inhibitory Ratio (%) After 2 weeks” value is 52%.
Regarding `CCCCCCCC/C=C\CCCCCCCC(=O)OC(CO)CO`, the “ACAT Inhibitory Ratio (%) After 2 weeks” value was determined as 56%.
For `CC/C=C\C/C=C\C/C=C\CCCCCCCC(=O)OCC(O)CO` (stereo not shown) [1-linolenoylglycerol], the “ACAT Inhibitory Ratio (%) After 2 weeks” value was 51%.
Still for that read-out and setting: with `CCCCCC/C=C\CCCCCCCC(=O)OCC(O)CO` (stereo not shown) [1-palmitooleylglycerol] the figure was 54%; with `CCCCCCCCCCCCCCCC(=O)OCC(O)CO` (stereo not shown) [1-palmitoylglycerol], 50%; with `CCCCCCCCCCCCCCCCCC(=O)OCC(O)CO` (stereo not shown) [1-stearoylglycerol], 29%.

Values taken from patent US5607970A, “ACAT inhibitory agent” (priority 1991, dated 1997).
